Laboratory results published in ChEMBL document CHEMBL1201862, “PubChem BioAssay data set” (2004).
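Five concentrations, 48 hours, 96-well plates. GI50: concentration for 50% inhibition of growth.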 Activity calls are given as the source filed them. Rule as the data show it: active = GI50 up to about 1.1 µM and inactive = higher.

Assays:
Assay in all cases: NCI-60 cell line screen, 48 h
COLO 205 = tested on: COLO 205
HCT-116 = tested on: HCT-116
SK-MEL-28 = tested on: SK-MEL-28
HL-60 = tested on: HL-60
SK-MEL-2 = tested on: SK-MEL-2
DMS-114 = tested on: DMS-114
CCRF-CEM = tested on: CCRF-CEM
HCT-15 = tested on: HCT-15
SN12C = tested on: SN12C
UACC-62 = tested on: UACC-62
SR = tested on: SR
EKVX = tested on: EKVX
OVCAR-4 = tested on: OVCAR-4
SNB-19 = tested on: SNB-19
Malme-3M = tested on: Malme-3M
SW-620 = tested on: SW-620
MOLT-4 = tested on: MOLT-4
NCI-H23 = tested on: NCI-H23
SK-MEL-5 = tested on: SK-MEL-5
LXFL 529 = tested on: LXFL 529
M14 = tested on: M14
ACHN = tested on: ACHN
UO-31 = tested on: UO-31
HOP-18 = tested on: HOP-18
KM-20L2 = tested on: KM-20L2
K562 = tested on: K562
U-251 = tested on: U-251
UACC-257 = tested on: UACC-257
DMS-273 = tested on: DMS-273
NCI-H226 = tested on: NCI-H226
A549 = tested on: A549
SF-268 = tested on: SF-268
SK-OV-3 = tested on: SK-OV-3
HT-29 = tested on: HT-29
NCI-H460 = tested on: NCI-H460
OVCAR-8 = tested on: OVCAR-8
SF-295 = tested on: SF-295
SNB-75 = tested on: SNB-75
NCI-H522 = tested on: NCI-H522
RXF 393 = tested on: RXF 393
HOP-62 = tested on: HOP-62
M19-MEL = tested on: M19-MEL
786-0 = tested on: 786-0
SNB-78 = tested on: SNB-78
KM12 = tested on: KM12
TK-10 = tested on: TK-10
RPMI-8226 = tested on: RPMI-8226
XF498 = tested on: XF498
LOX IMVI = tested on: LOX IMVI

## Cc1ccc(NC(=O)CSc2nnc(Cc3ccccc3)o2)c(C)c1
COLO 205
  GI50: > 100 µM (inactive)
HCT-116
  GI50: > 100 µM (inactive)
SK-MEL-28
  GI50: > 100 µM (inactive)
HL-60
  GI50: > 100 µM (inactive)
SK-MEL-2
  GI50: > 100 µM (inactive)
DMS-114
  GI50: > 100 µM (inactive)
CCRF-CEM
  GI50: > 100 µM (inactive)
HCT-15
  GI50: > 100 µM
SN12C
  GI50: > 100 µM (inactive)
UACC-62
  GI50: > 100 µM (inactive)
SR
  GI50: > 100 µM (inactive)
EKVX
  GI50: > 100 µM (inactive)
OVCAR-4
  GI50: > 100 µM (inactive)
SNB-19
  GI50: > 100 µM (inactive)
Malme-3M
  GI50: > 100 µM (inactive)
SW-620
  GI50: > 100 µM (inactive)
MOLT-4
  GI50: > 100 µM (inactive)
NCI-H23
  GI50: > 100 µM (inactive)
SK-MEL-5
  GI50: > 100 µM (inactive)
LXFL 529
  GI50: > 100 µM (inactive)
M14
  GI50: > 100 µM (inactive)
ACHN
  GI50: > 100 µM (inactive)
UO-31
  GI50: > 100 µM (inactive)
HOP-18
  GI50: > 100 µM (inactive)
KM-20L2
  GI50: > 100 µM (inactive)
K562
  GI50: > 100 µM (inactive)
U-251
  GI50: > 100 µM (inactive)
UACC-257
  GI50: > 100 µM (inactive)
DMS-273
  GI50: > 100 µM (inactive)
NCI-H226
  GI50: > 100 µM (inactive)
A549
  GI50: > 100 µM (inactive)
SF-268
  GI50: > 100 µM (inactive)
SK-OV-3
  GI50: > 100 µM (inactive)
HT-29
  GI50: > 100 µM (inactive)
NCI-H460
  GI50: > 100 µM (inactive)
OVCAR-8
  GI50: > 100 µM (inactive)
SF-295
  GI50: > 100 µM (inactive)
SNB-75
  GI50: > 100 µM (inactive)
NCI-H522
  GI50: > 100 µM (inactive)
RXF 393
  GI50: > 100 µM (inactive)
HOP-62
  GI50: > 100 µM (inactive)
M19-MEL
  GI50: > 100 µM (inactive)
786-0
  GI50: > 100 µM (inactive)
SNB-78
  GI50: > 100 µM (inactive)
KM12
  GI50: > 100 µM (inactive)
TK-10
  GI50: > 100 µM (inactive)
RPMI-8226
  GI50: > 100 µM (inactive)
XF498
  GI50: > 100 µM (inactive)
LOX IMVI
  GI50: > 100 µM (inactive)
